Assay results from paper PMC13538172, “Zonisamide nanodiamonds for brain targeting: A comprehensive study utilising in silico, in vitro, in vivo, and molecular investigation for successful nose-to-brain delivery for epilepsy management” (Drug Delivery and Translational Research, 2025).

Columns and labels:
[1] = system: brain-derived neurotrophic factor (BDNF); assay: Serum BDNF by ELISA in TLE rats; assay type: in vivo; settings: TLE control 22.1 ± 1.7, normal group 76.8 ± 6.1
Procedure: (§1) Temporal lobe epilepsy (TLE) was induced in rats using the pilocarpine model according to the method of Arshad et al.. Prior to the experiment, rats were housed in plastic cages at October University for Modern Science and Arts under controlled environmental conditions (temperatures of 25°±3°C and 50% humidity) with free access to water and softened standard pellet chow. The rats were injected with pilocarpine (300 mg/kg; i.p.) to induce status epilepticus (SE). Atropine (1 mg/kg; i.p.) was injected 30 minutes before pilocarpine injection to antagonize the peripheral muscarinic activity. SE was defined using the modified Racine scale by observing seizure severity categorized as stages 4 and 5. […] The SE seizures were left to last for 3 hours to induce hippocampus damage, after which diazepam (10 mg/kg; i.p.) was injected to attenuate the seizures. Lubricant ophthalmic gel was applied with a cotton swab to each eye to prevent the corneas from drying out during the seizures. The rats were hydrated with sterile Ringer's lactate injections (1 mL, i.p.) for 3 days post-SE induction. […]
(§2) The serum levels of neuron-specific enolase (NSE), matrix metallopeptidase-9 (MMP-9), neurofilament light polypeptide (NEFL), and brain-derived neurotrophic factor (BDNF) were measured by ELISA technique using the following standard kits CAT no. […]

[2] = system: neurofilament light polypeptide (NEFL); assay: Serum NEFL by ELISA in TLE rats; assay type: in vivo; settings: compared to the TLE control rats; intranasal, 7 days
Procedure: as §1, §2

[3] = system: Sirtuin 1 (Sirt-1); assay: Hippocampal SIRT-1 expression by quantitative RT-PCR in TLE rats; assay type: in vivo; settings: relative quantitation 2-∆∆Ct; TLE control 0.16 fold of normal
Procedure: (§3) Temporal lobe epilepsy (TLE) was induced in rats using the pilocarpine model according to the method of […] et al.. Prior to the experiment, rats were housed in plastic cages at October University for Modern Science and Arts under controlled environmental conditions (temperatures of 25°±3°C and 50% humidity) with free access to water and softened standard pellet chow. The rats were injected with pilocarpine (300 mg/kg; i.p.) to induce status epilepticus (SE). Atropine (1 mg/kg; i.p.) was injected 30 minutes before pilocarpine injection to antagonize the peripheral muscarinic activity. SE was defined using the modified Racine scale by observing seizure severity categorized as stages 4 and 5. […] For quantitative RT-PCR analysis of miR-199, Sirtuin 1 (Sirt-1) and long non-coding RNA of plasmacytoma variant translocation1 (LncRNA PVT-1), RNA was isolated from the brain hippocampus tissue with direct-zol RNA Miniprep Plus (CAT no. R2072) and reverse-transcribed into cDNA with the reverse transcriptase (CAT no. 12594100) according to the manufacturer instructions. […] Quantitative reverse transcriptase PCR was performed using a Power SYBR Green PCR Master Mix (CFX96 Instrument; Bio-Rad, USA). The relative quantitation (RQ) of each target gene is quantified according to the 2-ΔΔCt method calculation.

[4] = system: LncRNA PVT-1; assay: Hippocampal LncRNA PVT-1 expression by quantitative RT-PCR in TLE rats; assay type: in vivo; settings: relative quantitation 2-∆∆Ct; TLE control 5.7 folds of normal rats
Procedure: as §3

[5] = system: matrix metallopeptidase-9 (MMP-9); assay: Serum MMP-9 by ELISA in TLE rats; assay type: in vivo; settings: compared to the TLE control rats; intranasal, 7 days
Procedure: as §1, §2

[6] = design: method as in PMID 10837713; settings: following systemic absorption; cited from earlier work

With NS(=O)(=O)Cc1noc2ccccc12 [ZNS, Zonisamide] the “serum level of BDNF” value [1] was 47.45 ± 1.9 pg/mL, the “decrease in serum level of NEFL” value [2] was 44.6% and the “hippocampal SIRT-1 level” value [3] was 0.47 folds. The “hippocampal level of LncRNA-PVT1” value [4] was 3.4 folds, the “decrease in serum level of MMP-9” value [5] was 40.1% and the “Oldendorf Brain Uptake Index” value [6] was 28%.
